Results on two molecules are retold here after patent US20230190852A1, “COMPOSITIONS AND METHODS FOR JOINT HEALTH” (Unigen, Inc., priority 2013, published 2023).

The subject of one experiment is Sprague-Dawley (SD) rats. As to the kind of experiment: Monosodium iodoacetate (MIA) induced osteoarthritis rat model. The experiment is classed as in vivo. To be noted: for reduction in pain sensitivity: 10 mg/kg oral per day; for Pain sensitivity, % (of week 0 mean) / Pain sensitivity, Mean: oral 10 mg/kg.
The next experiment concerns Lewis rats. As to the kind of experiment: Carrageenan-induced rat paw edema model (paw edema and pain sensitivity). To be noted: for Pain sensitivity, percent change of vehicle / Paw edema, percent change of vehicle: 166 mg/kg oral 1 hr after carrageenan, female Lewis rats. It is filed as in vivo. As for the experimental part: Local inflammation was induced by intraplantar injection of carrageenan λ (Sigma, St. Louis, Mo.; 100 μl of 1% [w/v] in saline) into the plantar surface of right hind paw of sedated rat (with 2.5% isoflurane) at time 0 (T=0) (Gamache et al., J Neurosurg. 65:679, 1986; Guay et al., J. Biol. Chem. 279:24866, 2004; Chou et al., Anesth. Analg. 97:1724, 2003). Rats were acclimated in a procedure room for 20-30 minutes before each measurement was taken. Allodynia was evaluated by measuring responsiveness to the tip of a Randell-Selitto paw pressure test applied perpendicular to the central plantar surface of the right hind paw. A positive response to the applied pressure, noted by sharp withdrawal of the paw, was recorded automatically by an electronic Von Frey Anesthesiometer (2390 series Electrovonfrey, IITC, Woodland Hills, Calif.) (Vivancos et al., Braz. J. Med. Biol. Res. 37:391, 2004). Mechanical allodynia was evaluated before carrageenan inoculation, and thereafter at 1 hr, 2 hr, 4 hr and 6 hr. Paw edema volume was measured with the use of Plethysmometer (IITC, Woodland Hills, Calif.; Model 520) at time 0 (before carrageenan), and then 1 hr, 2 hr, 4 hr, and 6 hr after carrageenan injection. Animals (N=5 per group) were orally gavaged with a positive control ibuprofen (Spectrum Chemical MFG, Gardena, Calif.) (100 or 200 mg/kg); test articles such as: extracts, and combinations of extracts at various doses from 100, 200, 300 to 400 mg/kg and vehicle control (propylene glycol) were given 1 hour after carrageenan inoculation unless specified otherwise.

In a further experiment the test system is CD-1 mice. In words: Visceral pain perception model (Writhing's test, acetic acid). The experiment is classed as in vivo. The method, then: Mice (n=6 per group) were habituated under an inverted Plexiglas observation chamber for 30 minutes to allow them to acclimatize to their surroundings. Animals were orally administered treatment articles at different doses, […], or vehicle control (propylene glycol) 30 minutes before intraperitoneal administration of freshly made acetic acid solution (0.7% in 0.9% NaCl) at 10 ml/kg using a 26 gauge needle. The experiment was carried out at room temperature. After the challenge, each animal was placed back into its own individual section of the observation chamber and the number of constrictions of the abdominal muscle together with stretching was counted cumulatively over a period of 30 minutes (Collier et al., Br. J. Pharmacol. Chemother. 32:295, 1968).
For orientation: In writhing tests, fewer writhes than in controls are read as antinociception.

The subject of experiment [1] is Rabbit cartilage explants. As to the kind of experiment: Ex vivo glycosaminoglycans (GAG) release assay. It is filed as cell-based. As for the experimental part: Articular cartilage from hock joints of rabbits (2.5 kg body weight) was removed immediately after each animal was sacrificed and articular cartilage explants were obtained by following the method described by Sandy et al. (Biochem. Biophy Acta 543:36, 1978). Briefly, after the articular surfaces were surgically exposed under sterile conditions, approximately 200-220 mg articular surfaces per joint were dissected and submerged into complete medium (DMEM, supplemented with heat inactivated 5% FBS; penicillin 100 U/ml; streptomycin 100 ug/ml). They were then rinsed several times with the complete medium and incubated for 1 to 2 days at 37° C. in a humidified 5% CO2/95% air incubator for stabilization. The complete medium was replaced with a basal medium (DMEM, supplemented with heat-inactivated 1% FBS, 10 mM HEPES, and penicillin 100 U/ml streptomycin 100 μg/ml). Approximately 30 mg cartilage pieces (2×3×0.35 mm/piece) were placed in 24-well plates and treated with given concentrations of test agents. After pretreatment for 1 h, 5 ng/ml of rhIL-1α was added to the culture medium and further incubated at 37° C. in a humidified 5% CO2/95% air incubator. The culture medium was collected 24 h later and stored at −20° C. until assay.
The amount of sulphated GAGs (e.g., released from proteoglycans) in the medium at the end of the reaction reflects the amount of articular cartilage degradation, which was determined using the commercially available 1,9-dimethy-methylene blue method according to the instructions of the manufacturer (Blyscan™ assay, Accurate Chemical and Scientific Corp., Westbury, N.Y.).

The mark [2] stands for this setting: MIA OA rats, 10 mg/kg oral, 6 weeks, modified Mankin scoring.

Molecules are shown by their SMILES.

Experimental for Sprague-Dawley (SD) rats: The animals were randomized and assigned to treatment groups before the study began. After anesthetization with isoflurane, rats were injected with 50 μl containing 1 mg Monosodium iodoacetate (Sigma, St. Louis, Mo.; lot #SLBB6147V) using a 26 gauge needle inserted through the patellar ligament into the intra-articular space of the right knee. Normal rats were injected with an equivalent volume of saline instead of MIA. […] The first sample treatment was administered 1 hr before MIA injection. Normal and control rats were given orally an equal volume of vehicle (0.5% CMC in saline). Body weight and allodynia were measured once a week for 4 weeks. Allodynia was evaluated by measuring responsiveness to a tip of Randall-Selitto test (2390 series, IITC, Woodland Hills, Calif.) applied perpendicular to the central plantar surface of the right hind paw.
Male Sprague—Dawley (SD) rats weighing about 170 to about 230 g (6 weeks of age) were purchased and acclimated for one week. […] Each group was orally gavaged with their respective treatment. Anesthetized rats were injected with 0.8 mg of MIA in a 50 μl saline solution into the intra-articular pocket one hour after the second dose of treatments. Pain sensitivity was measured once a week using a Randall-Salitto meter and treatment lasted for 6 weeks. Body weights were measured once a week to calculate the respective weekly dosage of each group.

Regarding `O=C(O)Cc1ccccc1Nc1c(Cl)cccc1Cl` [Diclofenac], the results for the “reduction in pain sensitivity” value with Sprague-Dawley (SD) rats (week 5) and in the experiment on Sprague-Dawley (SD) rats (week 6) were 20.8% and 18.2%, respectively. Further, the “articular cartilage matrix integrity, total Mankin score vs. vehicle” value in the experiment on Sprague-Dawley (SD) rats (G:M 500 mg/kg, Diclofenac 10 mg/kg, 6 weeks) is “not statistically significant”. The “Total Mankin Score” value in the experiment on Sprague-Dawley (SD) rats (MIA OA rats, 10 mg/kg oral, 6 weeks) is 4.9 ± 2.69. Moreover, the “Cellular Abnormality (0-3) histopathological score” value in the experiment on Sprague-Dawley (SD) rats (setting [2]) turned out to be 1.3 ± 0.67. For the same molecule, the “Safranin-O Staining (0-4) histopathological score” value in the experiment on Sprague-Dawley (SD) rats (setting [2]) amounted to 1.7 ± 0.82. Moreover, the “Pain sensitivity, % (of week 0 mean)” value with Sprague-Dawley (SD) rats (MIA OA rats, Week 0) is listed as 100.00%; in the experiment on Sprague-Dawley (SD) rats (MIA OA rats, Week 1) it was 84.51%; with Sprague-Dawley (SD) rats (MIA OA rats, Week 2), 89.88%; in the experiment on Sprague-Dawley (SD) rats (MIA OA rats, Week 3) it was 94.05%; in the experiment with Sprague-Dawley (SD) rats (MIA OA rats, Week 4), 87.12%; in the experiment on Sprague-Dawley (SD) rats (MIA OA rats, Week 5), 84.43%. For the same molecule, the “Pain sensitivity, % (of week 0 mean)” value in the experiment on Sprague-Dawley (SD) rats (MIA OA rats, Week 6) is on record as 83.28%. Further, the “Pain sensitivity, Mean” value in the experiment with Sprague-Dawley (SD) rats (MIA OA rats, Week 0, Randall-Salitto meter) is listed as 173.20; in the experiment with Sprague-Dawley (SD) rats (MIA OA rats, Week 1, Randall-Salitto meter), 146.37; in the experiment with Sprague-Dawley (SD) rats (MIA OA rats, Week 2, Randall-Salitto meter) it was 155.67; in the experiment on Sprague-Dawley (SD) rats (MIA OA rats, Week 3, Randall-Salitto meter), 162.90; in the experiment on Sprague-Dawley (SD) rats (MIA OA rats, Week 4, Randall-Salitto meter), 150.90; in the experiment on Sprague-Dawley (SD) rats (MIA OA rats, Week 5, Randall-Salitto meter), 146.23. For the same molecule, in the experiment with Sprague-Dawley (SD) rats (MIA OA rats, Week 6, Randall-Salitto meter), the “Pain sensitivity, Mean” value was found to be 144.23.
For `CC(=O)N[C@H]1C(O)O[C@H](CO)[C@@H](O)[C@@H]1O` (some centres unmarked) [NAG, N-Acetyl Glucosamine], the “Pain sensitivity, percent change of vehicle” value in the experiment with Lewis rats (1 hr) was determined as 8.8%; in the experiment on Lewis rats (3 hr), 3.6%; with Lewis rats (5 hr), 2.6%. Further, the entries for the “Paw edema, percent change of vehicle” value in the experiment on Lewis rats (1 hr), in the experiment on Lewis rats (3 hr) and in the experiment with Lewis rats (5 hr) were 8.2%, 15.8% and 6.2%, respectively. Moreover, the “analgesic and anti-inflammatory activity” value in the experiment on Lewis rats (oral, rosmarinic acid 200 mg/kg, eriocitrin 100 mg/kg, NAG 166 mg/kg) was “minimal to no activity in inhibiting pain or inflammation”. Further, the “number of abdominal constrictions / behavioral responses in 30 minutes, Mean ± SD” value in the experiment with CD-1 mice (300 mg/kg oral) amounted to 91.0 ± 18.7. In addition, the “Visceral pain sensitivity, behavioral responses, Mean ± SD” value in the experiment on CD-1 mice (300 mg/kg oral 30 min before acetic acid i.p., observed 30 minutes, CD-1 mice) stood at 91.0 ± 18.7. Moreover, in the experiment on CD-1 mice (300 mg/kg oral, vs vehicle, CD-1 mice), the “Visceral pain sensitivity, % inhibition vs vehicle” value is listed as 5.4%. In experiment [1] (Oryctolagus cuniculus, 24 h, 25 μg/ml, rhIL-1α 5 ng/ml (IL-1α alone = 100)), this molecule registered an activity at 25 µg/mL of 95.7%. For the same molecule, the activity at 50 µg/mL in experiment [1] (Oryctolagus cuniculus, 24 h, 50 μg/ml, rhIL-1α 5 ng/ml (IL-1α alone = 100)) is 99.2%. Moreover, in experiment [1] (Oryctolagus cuniculus, 24 h, 100 μg/ml, rhIL-1α 5 ng/ml (IL-1α alone = 100)), the activity at 100 µg/mL stood at 87.5%. This molecule came in with an activity at 150 µg/mL in experiment [1] (Oryctolagus cuniculus, 24 h, 150 μg/ml, rhIL-1α 5 ng/ml (IL-1α alone = 100)) of 81.2%. For the same molecule, the “protective effect on rhIL-1α-mediated PG degradation / GAG release” value in experiment [1] (rhIL-1α 5 ng/ml) is “marginal”.
